Data as given in PubChem BioAssay AID1399 (The Scripps Research Institute Molecular Screening Center, 2008).
Activity calls are given as the source filed them. No cut-off is given here; in the data, nearly all actives have IC50 up to about 8.9 µM.

Target: Signal transducer and activator of transcription 3 (Homo sapiens) (UniProt P40763)
Test: STAT3 reporter inhibitors, potency, dose response, cell-based (AID 1399)
Conditions: human cell STAT3 reporter inhibition

SMILES | IC50
CCCOc1ccc(CSc2nc3ccccc3[nH]2)cc1 | 6.53 µM
c1ccc(C(Cc2nc(-c3ccncc3)no2)c2ccccc2)cc1 | 5.05 µM
Cc1cccc(C)c1NC(=O)N1CCN(c2nc3ccccc3s2)CC1 | 4.48 µM
O=C(Nc1cccc(S(=O)(=O)Nc2ccccc2Cl)c1)c1ccc(Cl)nc1 | 5.13 µM
CCOC(=O)Cc1csc(SCC(=O)c2c(N)n(CC(C)C)c(=O)n(C)c2=O)n1 | 3.7 µM
O=C(Nc1ccncc1)c1ccc(-c2ccccc2)cc1 | 2.16 µM
Cc1cc(C)n(Cc2ccc(NC(=O)c3ccc(COc4ccccc4Br)cc3)cc2)n1 | 7.64 µM
O=C(Nc1cccc(O)c1)c1noc2c1CCc1ccccc1-2 | 3.55 µM
COC(=O)Oc1ccc(/C=N/NC(=O)CSCc2ccccc2Br)cc1OC | 2.07 µM
CCOc1cc(C(=S)N2CCOCC2)ccc1OS(=O)(=O)c1ccc(NC(C)=O)cc1 | 5.23 µM
Cc1ccc2c(C)nc(Nc3nc(CSc4nc5ccccc5[nH]4)cc(=O)[nH]3)nc2c1 | 5.32 µM
Oc1ccc(-c2n[nH]c(=S)n2-c2ccc3c(c2)OCCO3)c(O)c1 | 5.37 µM
O=C(Nc1ccc(N2CCN(C(=O)c3ccco3)CC2)c(Cl)c1)c1cc2ccccc2o1 | 8.95 µM
O=C(Nc1ccn(Cc2ccccc2F)n1)c1ccc(COc2ccc(Br)cc2)cc1 | 2.9 µM
CCCCCCCc1ccc(-c2ccc(O)cc2)nc1 | 3.26 µM
O=C(Nc1cccc(O)c1)C(=O)Nc1ccccn1 | 3.7 µM
COc1ccc(/C=N/NC(=S)Nc2cccc(C(=O)O)c2)cc1 | 4.56 µM
CNC(=O)Oc1cccc(-c2cn3cc(Cl)ccc3n2)c1 | 1.78 µM
c1ccc(CC2CCN(c3ncnc4sccc34)CC2)cc1 | 1.61 µM
O=C(Nc1cccc(Cl)c1)Nc1ccnc(-c2cccnc2)n1 | 3.2 µM
CC(=O)Nc1ccc(-c2csc(Nc3ccc(Cl)cn3)n2)cc1 | 6.34 µM
COc1ccc(C)cc1-n1nnnc1SCn1nnc2ccccc2c1=O | 7.58 µM

SMILES | IC50
O=C(Nc1nccs1)c1ccc(S(=O)(=O)NCC2CCCCC2)cc1 | 3.03 µM
O=S(=O)(c1ccc2c(c1)OCCO2)N1CCC(c2nc3ccccc3s2)CC1 | 6.73 µM
Cc1cc(OCC(=O)Nc2ccncc2)ccc1Br | 6.7 µM
C[C@@H]1O[C@@H](O[C@H]2C[C@@H](O)[C@]3(CO)[C@H]4[C@H](O)C[C@]5(C)[C@@H](C6=CC(=O)OC6)CC[C@]5(O)[C@@H]4CC[C@]3(O)C2)[C@H](O)[C@H](O)[C@H]1O | 1.15 µM
O=C1CCCN1c1ccc(S(=O)(=O)N2CCC(c3ccccc3)CC2)cc1 | 4.5 µM
CCc1c(C)c2ccc(OCC(=O)OC(C)C)c(C)c2oc1=O | 6.19 µM
O=C1c2ccc(Br)cc2C(=O)N1c1ccc(Cc2ccncc2)cc1 | 5.65 µM
Cc1ccsc1/C=C1\CCc2ccccc2C1=O | 5.04 µM
CN1/C(=C\C(=O)C[n+]2ccc(C(=O)c3ccccc3)cc2)C(C)(C)c2ccccc21 | 5.22 µM
CC(=O)c1ccc(N=Nc2ccc(C)cc2)cc1 | 4.77 µM
COc1cccc(-c2cc(C(=O)Nc3cccc(O)c3)no2)c1 | 4.99 µM
COc1cc(OC)cc(C(=O)Nc2nnc(NC(=S)Nc3ccccc3)s2)c1 | 3.91 µM
CSc1ccc(NC(=O)N2CCN(c3nc4ccccc4s3)CC2)cc1 | 5.96 µM
Nc1cc(-c2ccc(Br)cc2)nn1Cc1ccccc1 | 4.05 µM
O=C(C1CCN(c2nc3ccc(Br)cc3s2)CC1)N1CCC2(CC1)OCCO2 | 2.79 µM
CCC(C)(C)c1ccc(OCCCC[n+]2cccc(C)c2)c(C(C)(C)CC)c1 | 4.09 µM
Cc1nn2cc(-c3ncc(C(F)(F)F)cc3Cl)cnc2c1Br | inactive
Cc1nc2ccccc2cc1OCc1ccccc1 | 4.76 µM
CN(C)S(=O)(=O)Oc1cccc(C(=O)Nc2ccc(Cl)cc2)c1 | 5.23 µM
COC(=O)c1cccc(NC(=O)CSc2nc3cccnc3n2C)c1 | 5.35 µM
Nc1cc(-c2ccccc2)nn1Cc1ccc(Cl)cc1 | 6.76 µM
COc1ccc2cc(-c3cc(C(=O)OCC(=O)Nc4c(C)n(C)n(-c5ccccc5)c4=O)c4ccccc4n3)ccc2c1 | 4.63 µM

SMILES | IC50
CCCCOc1ccc(C(=O)Nc2ccncc2)cc1 | 2.11 µM
COC(=O)c1nn(-c2ccc3c(c2)CCN3C(C)=O)cc1O | 1.29 µM
Cc1ccc(-n2nnnc2SCn2nnc3ccccc3c2=O)c(C)c1 | 5.32 µM
O=C1C2C3c4ccccc4C(c4ccccc43)C2c2nc3ccccc3n21 (stereo not given) | 3.23 µM
Cc1ccc(-n2ncc3c(SCc4cccnc4)ncnc32)c(C)c1 | 5.76 µM
Cc1nc2ccccc2cc1OCc1ccc(F)cc1 | 3.47 µM
COc1ccc(CC(=O)Nc2cccc(-c3nnc(-c4cccc(C)c4)o3)c2)cc1OC | 3.32 µM
CN(C)S(=O)(=O)c1ccc(C(=O)Nc2nc(-c3cccs3)cs2)cc1 | 8.64 µM
CC[n+]1ccccc1/C=C/c1ccc(N(C)C)cc1 | 2.94 µM
Nc1c(C(=O)NC2CCCCC2)nsc1C(=O)OCC(=O)NC1CCCCC1 | 4.22 µM
CCOC(=O)c1oc2ccc(S(=O)(=O)Nc3ccc4c(c3)n(C)c(=O)n4C)cc2c1C | 5.04 µM
CC(=O)c1cn(CC(=O)Nc2ccccc2C)c2ccccc12 | 5.07 µM
C[C@H]1CCC[C@@H](O)CCC/C=C/c2cc(O)cc(O)c2C(=O)O1 | 5.25 µM
O=C(Oc1ccccc1N1C(=O)C2CCCCC2C1=O)c1ccccc1 (stereo not given) | 7.93 µM
CCOC(=O)C1=C(Cc2ccc(C)cc2)C(=O)c2ccccc2C1=O | 7.04 µM
Cn1c(=O)oc2cc(S(=O)(=O)N3CCCC(C(=O)N4CC=C(c5ccccc5)CC4)C3)ccc21 (stereo not given) | 5.41 µM
CCC(C)NC(=S)Nc1ccc(C(=O)OC)cc1 (stereo not given) | 4.35 µM
CC(=O)N1CCc2cc(S(=O)(=O)NC3CCCc4ccccc43)ccc21 (stereo not given) | 5.12 µM
Cn1c(CN2CCCCC2)nc2cc(NC(=O)c3cccc(Br)c3)ccc21 | 4.55 µM
COc1ccc(-c2nn(C)c(=O)c3ccccc23)cc1NC(=O)COc1ccc(C)cc1 | 5.06 µM
COc1ccc(NS(=O)(=O)c2ccc(NC(=O)c3ccc(N(C)S(C)(=O)=O)cc3)cc2)cc1 | 3.99 µM
C[C@H]1O[C@@H](O[C@H]2[C@@H](O)C[C@H](O[C@H]3[C@@H](O)C[C@H](O[C@H]4CC[C@@]5(C)[C@H](CC[C@@H]6[C@@H]5CC[C@]5(C)[C@@H](C7=CC(=O)OC7)CC[C@]65O)C4)O[C@@H]3C)O[C@@H]2C)C[C@H](O)[C@@H]1O | 0.7 µM

SMILES | IC50
O=C(COC(=O)c1n[nH]c2ccccc12)Nc1ccc(S(=O)(=O)N2CCCC2)cc1 | 4.5 µM
COc1ccc(C(=O)Nc2ccc3oc(Cc4ccc(Cl)cc4)nc3c2)cc1OC | 6.74 µM
O=C(Nc1ccn(Cc2ccccc2F)n1)c1ccc(COc2ccccc2Cl)cc1 | 5.12 µM
O=C(Nc1ccncc1)c1ccc2c(c1)C(=O)N(C1CCCCC1)C2=O | 2.42 µM
Cc1ccccc1OCCCCn1cnc2ccccc21 | 5.73 µM
O=C(NC1CC1)c1cc2c(s1)-c1ccccc1OC2 | 3.83 µM
O=C(Nc1nc(-c2ccc(Cl)s2)cs1)c1ccncc1 | 4.01 µM
NNC(=O)c1cccc(COc2ccccc2Br)c1 | 3.25 µM
Cc1nc2sccn2c1-c1csc(NCc2ccccc2)n1 | 4.37 µM
Cc1ccc(S(=O)(=O)N(C)c2ccc(C(=O)N3CCN(Cc4ccc5c(c4)OCO5)CC3)cc2)cc1 | 6.17 µM
Cc1cc(OCC(=O)Nc2ccncc2)cc(C)c1Br | 3.18 µM
Cc1cccc(-c2nc3cc(NC(=O)C4CCCO4)ccc3o2)c1 (stereo not given) | 6.32 µM
CCN(CC)c1ccc(NC(=O)CN2C(=O)CSc3ncccc32)c(C)c1 | 3.82 µM
C[C@H]1O[C@@H](O[C@H]2[C@@H](O)C[C@H](O[C@H]3[C@@H](O)C[C@H](O[C@H]4CC[C@@]5(C)[C@H](CC[C@@H]6[C@@H]5C[C@@H](O)[C@]5(C)[C@@H](C7=CC(=O)OC7)CC[C@]65O)C4)O[C@@H]3C)O[C@@H]2C)C[C@H](O)[C@@H]1O | 1.86 µM
Cc1csc(NC(=O)c2cc3c(s2)CCCC3)n1 | 3.82 µM
CC1CCCCC1NS(=O)(=O)c1ccc(S(=O)(=O)NCc2ccncc2)cc1 (stereo not given) | 3.28 µM
Cc1ccc(N2C(=O)c3ccccc3C2O)nc1 (stereo not given) | 5.98 µM
O=C(Nc1ccc(Oc2ccccc2)cc1)C1CCN(c2c3c(nc4ncnn24)CCC3)CC1 | 6.45 µM
CCCNC(=O)c1ccc(-c2nc3ccccc3s2)s1 | 5.06 µM
Cc1cc(NC(=O)c2cc(-c3cccs3)on2)nn1Cc1ccc(Cl)cc1 | 5.48 µM
O=C(Nc1ccc(Oc2ccccc2)cc1)c1cnc2n(c1=O)CCS2 | 1.61 µM
NC(=O)C1CCN(c2ccc(S(=O)(=O)N3CCC(Cc4ccccc4)CC3)cn2)CC1 | 4.93 µM

SMILES | IC50
Cc1cccc(N2CCN(C(=O)CSCc3c(C)noc3C)CC2)c1C | 4.55 µM
Cc1ccc(-c2cn3cc([N+](=O)[O-])ccc3n2)cc1 | 4.09 µM
CN1/C(=C\C(=O)C[n+]2ccc3ccccc3c2)C(C)(C)c2ccccc21 | 1.74 µM
Cc1ccc(Cl)cc1N1CCN(C(=O)COc2ccc(S(=O)(=O)NC(C)C)cc2)CC1 | 7.8 µM
O=C(COc1ccc2ccccc2c1)Nc1ccncc1 | 6.11 µM
O=C(Nc1ccc(N2CCOCC2)nc1)c1ccc(C(F)(F)F)cc1 | 3.4 µM
Clc1ccc(CSc2nnc(Cn3cnc4ccccc43)o2)cc1 | 5.02 µM
Cc1nc(CNS(=O)(=O)c2ccc(Oc3ccccc3)cc2)cs1 | 5.54 µM
COc1ccccc1OCC(=O)c1[nH]c(C)c(C(C)=O)c1C | 5.33 µM
COc1ccc(CC(=O)Nc2cccc(SC)c2)cc1OC | 6.37 µM
COc1ccc(/C=N/NC(=S)Nc2ccccc2[N+](=O)[O-])cc1O | 1.74 µM
O=c1c2c(nc3n1CCCCC3)sc1c(O)cccc12 | 7.42 µM
CCOC(=O)c1sc2nc(CC(=O)OC)nc(NCc3ccc(Cl)cc3)c2c1C | 7.66 µM
O=C(Oc1cccc(Nc2ncnc3ccccc23)c1)c1ccccc1Cl | 4.44 µM
COc1cc(OC)cc(C(=O)Nc2ccc(-c3nc4ccccc4o3)cc2)c1 | inactive
CNc1ccccc1C(C)(C)c1cc(-c2ccc(F)cc2)no1 | 5.41 µM
CC1CCC2C(=O)N(c3ccccc3OC(=O)c3ccccc3)C(=O)C2C1 (stereo not given) | 9.22 µM
Clc1ccc(OCc2cc(-c3ccccc3)no2)c(Cl)c1 | 8.02 µM
O=C(Nc1ccc(Cc2ccncc2)cc1)c1ccc(S(=O)(=O)N2CCOCC2)cc1 | 4.31 µM
CC(C)Cn1c(N)c(C(=O)CSc2ccccc2)c(=O)n(C)c1=O | 5.57 µM
CCOC(=O)c1ccc(NC(=O)c2ccc(CN3CCOCC3)cc2)cc1 | 2.9 µM
O=C1C2C3c4ccccc4C(c4ccccc43)[C@@H]2c2nc3ccccc3n21 (stereo not given in full) | 4.51 µM
